{"source": "patent US20160310525A1", "about": "“PREPARATION FOR PREVENTION AND/OR TREATMENT OF PERI-IMPLANTITIS” (RLS GLOBAL AB, priority 2013, published 2016)", "origin": "cited, not measured here", "test_system": "biofilm on titan specimens"}
{"smiles": "OCl", "note": "[sodium hypochlorite]", "values": [{"measurement": "antimicrobial effect on biofilm", "value": "effective"}]}
